# In patent US12247032B2, “Substituted pyrazolo[1,5-a]pyrimidines as inhibitors of JAK kinases” (Genentech, Inc., priority 2019, dated 2025):
# Tested on: JAK2 pathway (P-STAT5 in TF-1 human erythroleukemia cells + EPO)
# Assay: P-STAT5 TF-1+Erythropoietin (EPO) assay
# Format: cell-based
# Conditions: Homo sapiens, TF-1, 0.5 h, TF-1 cells, 30 minutes compound, EPO 30 min; IC50 by four-parameter fit; read-out: Cellular (JAK2 PSTAT5 TF1 + EPO)
# Procedure: TF-1 human erythroleukemia cells (ATCC®; Manassas, VA; Catalog No. CRL-2003™) were grown in Roswell Park Memorial Institute (RPMI) medium supplemented with 10% heat-inactivated fetal bovine serum (FBS), 2 ng/mL granulocyte-macrophage colony-stimulating factor, 1× non-essential amino acids (NEAA), and 1 mM sodium pyruvate. The day before the assay, the cultures were transferred to Opti-MEM™, 1×NEAA, 1 mM sodium pyruvate, and 0.5% charcoal-stripped FBS (starve medium). Inhibitor stock solutions (5 mM in DMSO) were serially diluted 1:2 in DMSO to generate a 10-point concentration titration (at 500× test concentration), which was further diluted by a 50-fold dilution in Assay Medium (RPMI containing 1×NEAA and 1 mM sodium pyruvate) to generate a 10× concentration titration (in 2% DMSO). The cells (300,000 cells/well in 35 μL of Assay Medium) were seeded in 384-well Greiner plates. Diluted inhibitor at 10× concentration (5 μL) was added to the cells and the plates were incubated for 30 minutes at 37° C. in a humidified incubator. Cells were stimulated with the human recombinant cytokine at the respective EC90 concentrations, as previously determined for each individual lot. For the phosphorylated signal transducer and activator of transcription 6 (P-STAT6) TF-1+Interleukin-13 (IL-13) assay, 10 μL of 250 ng/mL IL-13 (R&D Systems; Minneapolis, MN) was added to the cells, which were then incubated for 10 minutes at 37° C. For the P-STAT5 TF-1+Erythropoietin (EPO) assay, 10 μL of 110 IU/mL EPO (Gibco Life Technologies, Catalog No. PHC2054) was added to the cells, which were then incubated for 30 min at 37° C. For both assays, the incubation was followed by addition to the cells of 5 μL of ice-cold 10× cell lysis buffer (Cell Signaling Technologies; Danvers, MA; Catalog No. 9803S) containing 1 mM phenylmethylsulfonyl fluoride (PMSF). Assay plates were frozen at −80° C. for a minimum of 1 hour. In the IL-13 assay, P-STAT6 was measured by coating goat anti-rabbit (GAR) plates (Meso Scale Discovery [MSD]; Rockville, MD; Catalog No. MSD L21RA-1) with rabbit anti-human total STAT6 antibody (Cell Signaling Technologies; Catalog No. 9362S), incubating the cell lysates in the coated plates overnight at 4° C., and then detecting with mouse anti-P-STAT6 (Tyr641) Clone 16E12 antibody (MilliporeSigma; Burlington, MA; Catalog No. 05-590, custom labeled by MSD with SULFO-tag) using standard MSD plate processing, washing, and detection protocols. In the EPO assay, P-STAT5 was detected using the phospho-STAT5a,b Whole Cell Lysate Kit (MSD; Catalog No. K150IGD-1). The electrochemiluminescence (ECL) signal of wells was read on the MESO SECTOR S600 (MSD) reader.
# Data analysis was performed by subtracting the negative control (cytokine stimulated and 20 μM control inhibitor-treated cells) mean ECL value from the ECL value of all wells, determining percent of control for test compound well ECL values relative to the positive control (cytokine stimulated and DMSO-treated cells) mean ECL value, and determining the IC50 for test compounds with a four-parameter logistic fit model as shown in Equation 4.
row,Structure (SMILES),IC50
1,"O=C(Nc1cn(Cc2nnn(C3CCNC3)n2)nc1-c1cc(OC(F)F)ccc1OC(F)F)c1cnn2cccnc12 (single isomer, unassigned) [Example 27, N-[3-[2,5-bis(difluoromethoxy)phenyl]-1-[(2-pyrrolidin-3-yltetrazol-5-yl)methyl]pyrazol-4-yl]pyrazolo[1,5-a]pyrimidine-3-carboxamide]",17 nM
2,"CN1CCC(N2CC(n3nnc(Cn4cc(NC(=O)c5cnn6cccnc56)c(-c5cc(OC(F)F)ccc5OC(F)F)n4)n3)C2)C1 (single isomer, unassigned) [Example 72, N-[3-[2,5-bis(difluoromethoxy)phenyl]-1-[[2-[1-(1-methylpyrrolidin-3-yl)azetidin-3-yl]tetrazol-5-yl]methyl]pyrazol-4-yl]pyrazolo[1,5-a]pyrimidine-3-carboxamide]",51 nM
3,"CN1CC(n2nnc(Cn3cc(NC(=O)c4cnn5cccnc45)c(-c4cc(Cl)ccc4OC(F)F)n3)n2)C1 [Example 7, N-[3-[5-chloro-2-(difluoromethoxy)phenyl]-1-[[2-(1-methylazetidin-3-yl)tetrazol-5-yl]methyl]pyrazol-4-yl]pyrazolo[1,5-a]pyrimidine-3-carboxamide]",13 nM
4,"O=C(Nc1cn(Cc2nnnn2C2CNC2)nc1-c1cc(OC(F)F)ccc1OC(F)F)c1cnn2cccnc12 [Example 12, N-[1-[[1-(azetidin-3-yl)tetrazol-5-yl]methyl]-3-[2,5-bis(difluoromethoxy)phenyl]pyrazol-4-yl]pyrazolo[1,5-a]pyrimidine-3-carboxamide]",51 nM
5,"NCCn1nnc(Cn2cc(NC(=O)c3cnn4cccnc34)c(-c3cc(OC(F)F)ccc3OC(F)F)n2)n1 [Example 13, N-[1-[[2-(2-aminoethyl)tetrazol-5-yl]methyl]-3-[2,5-bis(difluoromethoxy)phenyl]pyrazol-4-yl]pyrazolo[1,5-a]pyrimidine-3-carboxamide]",10 nM
6,"CN1CC(n2nnnc2Cn2cc(NC(=O)c3cnn4cccnc34)c(-c3cc(Cl)ccc3OC(F)F)n2)C1 [Example 15, N-[3-[5-chloro-2-(difluoromethoxy)phenyl]-1-[[1-(1-methylazetidin-3-yl)tetrazol-5-yl]methyl]pyrazol-4-yl]pyrazolo[1,5-a]pyrimidine-3-carboxamide]",7.2 nM
7,"CN(C)CCn1nnc(Cn2cc(NC(=O)c3cnn4cccnc34)c(-c3cc(OC(F)F)ccc3OC(F)F)n2)n1 [Example 16, N-[3-[2,5-bis(difluoromethoxy)phenyl]-1-[[2-[2-(dimethylamino)ethyl]tetrazol-5-yl]methyl]pyrazol-4-yl]pyrazolo[1,5-a]pyrimidine-3-carboxamide]",12 nM
8,"CN(C)CCn1nnnc1Cn1cc(NC(=O)c2cnn3cccnc23)c(-c2cc(OC(F)F)ccc2OC(F)F)n1 [Example 17, N-[3-[2,5-bis(difluoromethoxy)phenyl]-1-[[1-[2-(dimethylamino)ethyl]tetrazol-5-yl]methyl]pyrazol-4-yl]pyrazolo[1,5-a]pyrimidine-3-carboxamide]",9.7 nM
9,"O=C(Nc1cn(Cc2nnn(C3CCNCC3)n2)nc1-c1cc(OC(F)F)ccc1OC(F)F)c1cnn2cccnc12 [Example 18, N-[3-[2,5-bis(difluoromethoxy)phenyl]-1-[[2-(4-piperidyl)tetrazol-5-yl]methyl]pyrazol-4-yl]pyrazolo[1,5-a]pyrimidine-3-carboxamide]",19 nM
10,"CNCCn1nnnc1Cn1cc(NC(=O)c2cnn3cccnc23)c(-c2cc(OC(F)F)ccc2OC(F)F)n1 [Example 19, N-[3-[2,5-bis(difluoromethoxy)phenyl]-1-[[1-[2-(methylamino)ethyl]tetrazol-5-yl]methyl]pyrazol-4-yl]pyrazolo[1,5-a]pyrimidine-3-carboxamide]",21 nM
11,"CN(C)CCN1CC(n2nnc(Cn3cc(NC(=O)c4cnn5cccnc45)c(-c4cc(OC(F)F)ccc4OC(F)F)n3)n2)C1 [Example 21, N-[3-[2,5-bis(difluoromethoxy)phenyl]-1-[[2-[1-[2-(dimethylamino)ethyl]azetidin-3-yl]tetrazol-5-yl]methyl]pyrazol-4-yl]pyrazolo[1,5-a]pyrimidine-3-carboxamide]",32 nM
12,"CN1CCC(n2nnnc2Cn2cc(NC(=O)c3cnn4cccnc34)c(-c3cc(OC(F)F)ccc3OC(F)F)n2)C1 (stereo not drawn) [Example 26, N-[3-[2,5-bis(difluoromethoxy)phenyl]-1-[[1-(1-methylpyrrolidin-3-yl)tetrazol-5-yl]methyl]pyrazol-4-yl]pyrazolo[1,5-a]pyrimidine-3-carboxamide]",18 nM

# Further lines, results first:
row,IC50,Structure (SMILES)
1,13 nM,"O=C(Nc1cn(Cc2nnn(C3CNC3)n2)nc1-c1cc(Cl)ccc1OC(F)F)c1cnn2cccnc12 [Example 8, N-[1-[[2-(azetidin-3-yl)tetrazol-5-yl]methyl]-3-[5-chloro-2-(difluoromethoxy)phenyl]pyrazol-4-yl]pyrazolo[1,5-a]pyrimidine-3-carboxamide]"
2,5.1 nM,"CN1CC(n2nnc(Cn3cc(NC(=O)c4cnn5cccnc45)c(-c4cc(OC(F)F)ccc4OC(F)F)n3)n2)C1 [Example 10, N-[3-[2,5-bis(difluoromethoxy)phenyl]-1-[[2-(1-methylazetidin-3-yl)tetrazol-5-yl]methyl]pyrazol-4-yl]pyrazolo[1,5-a]pyrimidine-3-carboxamide]"
3,10 nM,"O=C(Nc1cn(Cc2nnn(C3CNC3)n2)nc1-c1cc(OC(F)F)ccc1OC(F)F)c1cnn2cccnc12 [Example 11, N-[1-[[2-(azetidin-3-yl)tetrazol-5-yl]methyl]-3-[2,5-bis(difluoromethoxy)phenyl]pyrazol-4-yl]pyrazolo[1,5-a]pyrimidine-3-carboxamide]"
4,46 nM,"NCCn1nnnc1Cn1cc(NC(=O)c2cnn3cccnc23)c(-c2cc(OC(F)F)ccc2OC(F)F)n1 [Example 14, N-[1-[[1-(2-aminoethyl)tetrazol-5-yl]methyl]-3-[2,5-bis(difluoromethoxy)phenyl]pyrazol-4-yl]pyrazolo[1,5-a]pyrimidine-3-carboxamide]"
5,15 nM,"CNCCn1nnc(Cn2cc(NC(=O)c3cnn4cccnc34)c(-c3cc(OC(F)F)ccc3OC(F)F)n2)n1 [Example 20, N-[3-[2,5-bis(difluoromethoxy)phenyl]-1-[[2-[2-(methylamino)ethyl]tetrazol-5-yl]methyl]pyrazol-4-yl]pyrazolo[1,5-a]pyrimidine-3-carboxamide]"
6,18 nM,CN1CCC(n2nnc(Cn3cc(NC(=O)c4cnn5cccnc45)c(-c4cc(OC(F)F)ccc4OC(F)F)n3)n2)CC1 [Example 22]
7,8.2 nM,"CN1CC(n2nnc(Cn3cc(NC(=O)c4cnn5cccnc45)c(-c4cc(C5CC5)ccc4OC(F)F)n3)n2)C1 [Example 23, N-[3-[5-cyclopropyl-2-(difluoromethoxy)phenyl]-1-[[2-(1-methylazetidin-3-yl)tetrazol-5-yl]methyl]pyrazol-4-yl]pyrazolo[1,5-a]pyrimidine-3-carboxamide]"
8,8.6 nM,"CN(CCN1CC(n2nnc(Cn3cc(NC(=O)c4cnn5cccnc45)c(-c4cc(OC(F)F)ccc4OC(F)F)n3)n2)C1)C(=O)OC(C)(C)C [Example 31, tert-butyl N-[2-[3-[5-[[3-[2,5-bis(difluoromethoxy)phenyl]-4-(pyrazolo[1,5-a]pyrimidine-3-carbonylamino)pyrazol-1-yl]methyl]tetrazol-2-yl]azetidin-1-yl]ethyl]-N-methyl-carbamate]"

# Same assay, conditions: TF-1 cells, 30 minutes compound, EPO 30 min; IC50 by four-parameter fit; read-out: Cellular (JAK2 PSTAT5 TF1 + EPO)
row,IC50,Structure (SMILES)
1,19 nM,"O=C(Nc1cn(Cc2nnn(C3CCNC3)n2)nc1-c1cc(OC(F)F)ccc1OC(F)F)c1cnn2cccnc12 (single isomer, unassigned) [Example 28, N-[3-[2,5-bis(difluoromethoxy)phenyl]-1-[(2-pyrrolidin-3-yltetrazol-5-yl)methyl]pyrazol-4-yl]pyrazolo[1,5-a]pyrimidine-3-carboxamide]"
